# Test results taken from the supplement of paper PMC8967900.
# Tested on: MHH-CALL-3
# Assay: selective drug sensitivity score (sDSS, relative to normal bone marrow) (sDSS (score)); higher = more potent and effective on the cell line relative to normal bone marrow cells
# Conditions: 72 h
# 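Also: ALL cell lines in 384-well plates, five doses spanning 10,000-fold, each plate scaled between vehicle and 100 µmol/L benzalkonium chloride controls, sDSS an adapted area-under-curve metric.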
row,Compound,selective drug sensitivity score
1,Cn1cc(C2=C(c3cn(C4CCN(Cc5ccccn5)CC4)c4ccccc34)C(=O)NC2=O)c2ccccc21 [Enzastaurin] (top concentration 10000 nM),3.86
2,NS(=O)(=O)NCCNc1nonc1/C(=N/O)Nc1ccc(F)c(Br)c1 [Epacadostat] (top concentration 10000 nM),-0.26
3,CCOc1ccccc1-n1c(C(C)N2CCN(C(=O)COc3ccc(Cl)cc3)CC2)nc2ccccc2c1=O (stereo not given) [Erastin] (top concentration 10000 nM),24.4
4,COc1cc(OC)cc(N(CCNC(C)C)c2ccc3ncc(-c4cnn(C)c4)nc3c2)c1 [Erdafitinib] (top concentration 1000 nM),0.64
5,CC(C)(C)NC(=O)[C@H]1CC[C@H]2[C@@H]3CC[C@H]4NC(=O)C=C[C@]4(C)[C@H]3CC[C@]12C [Finasteride] (top concentration 10000 nM),-0.52
6,O=c1[nH]c(=O)n([C@H]2C[C@H](O)[C@@H](CO)O2)cc1F [Floxuridine] (top concentration 10000 nM),26.3
7,CNc1nc(Nc2cn(C(C)(C)C#N)nc2C)ncc1C(F)(F)F [GNE-0877] (top concentration 1000 nM),0
8,CCCc1cc(C)[nH]c(=O)c1CNC(=O)c1cc(-c2ccnc(N3CCN(C)CC3)c2)cc2c1cnn2C(C)C [GSK343] (top concentration 1000 nM),0
9,O=C(O)c1ccc(O)c2ncccc12 [IOX-1] (top concentration 100000 nM),0.24

# Tested on: CCRF-CEM
# Assay: as above
# Conditions: 72 h
row,Compound,selective drug sensitivity score
1,CCCCCOC(=O)Nc1nc(=O)n([C@@H]2O[C@H](C)[C@@H](O)[C@H]2O)cc1F [Capecitabine] (top concentration 10000 nM),-0.06
2,Nc1nc(Cl)nc2c1ncn2[C@H]1C[C@H](O)[C@@H](CO)O1 [Cladribine] (top concentration 1000 nM),5.16
3,CCN(CC)CCOc1ccc(/C(=C(/Cl)c2ccccc2)c2ccccc2)cc1 [Clomifene] (top concentration 10000 nM),-0.08
4,CO[C@@H](C(=O)N1Cc2[nH]nc(NC(=O)c3ccc(N4CCN(C)CC4)cc3)c2C1)c1ccccc1 [Danusertib] (top concentration 10000 nM),18.5
5,CC[C@@](C)(Nc1ccnc(-c2c[nH]c3ncccc23)n1)C(=O)NCC(F)(F)F [Decernotinib] (top concentration 10000 nM),-3.94
6,CN1CCN(c2ccc3nc(-c4c(N)c5c(F)cccc5[nH]c4=O)[nH]c3c2)CC1 [Dovitinib] (top concentration 10000 nM),0.26
7,CC(C)(O)CNc1nc(Nc2ccnc(C(F)(F)F)c2)nc(-c2cccc(C(F)(F)F)n2)n1 [Enasidenib] (top concentration 10000 nM),-0.1
8,CN1CCN(c2ccc(C(=O)Nc3n[nH]c4ccc(Cc5cc(F)cc(F)c5)cc34)c(NC3CCOCC3)c2)CC1 [Entrectinib] (top concentration 1000 nM),-1.2
9,CNC(=O)c1ccc(N2C(=S)N(c3ccc(C#N)c(C(F)(F)F)c3)C(=O)C2(C)C)cc1F [Enzalutamide] (top concentration 10000 nM),-0.52
10,Cn1cc(C2=C(c3cn(C4CCN(Cc5ccccn5)CC4)c4ccccc34)C(=O)NC2=O)c2ccccc21 [Enzastaurin] (top concentration 10000 nM),5.06
11,NS(=O)(=O)NCCNc1nonc1/C(=N/O)Nc1ccc(F)c(Br)c1 [Epacadostat] (top concentration 10000 nM),-0.26
12,CCOc1ccccc1-n1c(C(C)N2CCN(C(=O)COc3ccc(Cl)cc3)CC2)nc2ccccc2c1=O (stereo not given) [Erastin] (top concentration 10000 nM),9.34
13,COc1cc(OC)cc(N(CCNC(C)C)c2ccc3ncc(-c4cnn(C)c4)nc3c2)c1 [Erdafitinib] (top concentration 1000 nM),-0.56
14,CC(C)(C)NC(=O)[C@H]1CC[C@H]2[C@@H]3CC[C@H]4NC(=O)C=C[C@]4(C)[C@H]3CC[C@]12C [Finasteride] (top concentration 10000 nM),-0.52
15,O=c1[nH]c(=O)n([C@H]2C[C@H](O)[C@@H](CO)O2)cc1F [Floxuridine] (top concentration 10000 nM),31.1
16,CNc1nc(Nc2cn(C(C)(C)C#N)nc2C)ncc1C(F)(F)F [GNE-0877] (top concentration 1000 nM),0
17,CCCc1cc(C)[nH]c(=O)c1CNC(=O)c1cc(-c2ccnc(N3CCN(C)CC3)c2)cc2c1cnn2C(C)C [GSK343] (top concentration 1000 nM),0
18,O=C(O)c1ccc(O)c2ncccc12 [IOX-1] (top concentration 100000 nM),3.74

# Tested on: KOPN-8
# Assay: as above
# Conditions: 72 h
row,Compound,selective drug sensitivity score
1,CCCCCOC(=O)Nc1nc(=O)n([C@@H]2O[C@H](C)[C@@H](O)[C@H]2O)cc1F [Capecitabine] (top concentration 10000 nM),-0.06
2,Nc1nc(Cl)nc2c1ncn2[C@H]1C[C@H](O)[C@@H](CO)O1 [Cladribine] (top concentration 1000 nM),9.66
3,CCN(CC)CCOc1ccc(/C(=C(/Cl)c2ccccc2)c2ccccc2)cc1 [Clomifene] (top concentration 10000 nM),8.92
4,CO[C@@H](C(=O)N1Cc2[nH]nc(NC(=O)c3ccc(N4CCN(C)CC4)cc3)c2C1)c1ccccc1 [Danusertib] (top concentration 10000 nM),19
5,CC[C@@](C)(Nc1ccnc(-c2c[nH]c3ncccc23)n1)C(=O)NCC(F)(F)F [Decernotinib] (top concentration 10000 nM),-3.94
6,CN1CCN(c2ccc3nc(-c4c(N)c5c(F)cccc5[nH]c4=O)[nH]c3c2)CC1 [Dovitinib] (top concentration 10000 nM),-0.14
7,CC(C)(O)CNc1nc(Nc2ccnc(C(F)(F)F)c2)nc(-c2cccc(C(F)(F)F)n2)n1 [Enasidenib] (top concentration 10000 nM),1.2
8,CN1CCN(c2ccc(C(=O)Nc3n[nH]c4ccc(Cc5cc(F)cc(F)c5)cc34)c(NC3CCOCC3)c2)CC1 [Entrectinib] (top concentration 1000 nM),0.1
9,CNC(=O)c1ccc(N2C(=S)N(c3ccc(C#N)c(C(F)(F)F)c3)C(=O)C2(C)C)cc1F [Enzalutamide] (top concentration 10000 nM),5.18
10,Cn1cc(C2=C(c3cn(C4CCN(Cc5ccccn5)CC4)c4ccccc34)C(=O)NC2=O)c2ccccc21 [Enzastaurin] (top concentration 10000 nM),2.46
11,NS(=O)(=O)NCCNc1nonc1/C(=N/O)Nc1ccc(F)c(Br)c1 [Epacadostat] (top concentration 10000 nM),2.44
12,CCOc1ccccc1-n1c(C(C)N2CCN(C(=O)COc3ccc(Cl)cc3)CC2)nc2ccccc2c1=O (stereo not given) [Erastin] (top concentration 10000 nM),18.8
13,COc1cc(OC)cc(N(CCNC(C)C)c2ccc3ncc(-c4cnn(C)c4)nc3c2)c1 [Erdafitinib] (top concentration 1000 nM),-0.56
14,CC(C)(C)NC(=O)[C@H]1CC[C@H]2[C@@H]3CC[C@H]4NC(=O)C=C[C@]4(C)[C@H]3CC[C@]12C [Finasteride] (top concentration 10000 nM),8.18
15,O=c1[nH]c(=O)n([C@H]2C[C@H](O)[C@@H](CO)O2)cc1F [Floxuridine] (top concentration 10000 nM),37.3
16,CNc1nc(Nc2cn(C(C)(C)C#N)nc2C)ncc1C(F)(F)F [GNE-0877] (top concentration 1000 nM),0
17,CCCc1cc(C)[nH]c(=O)c1CNC(=O)c1cc(-c2ccnc(N3CCN(C)CC3)c2)cc2c1cnn2C(C)C [GSK343] (top concentration 1000 nM),0
18,O=C(O)c1ccc(O)c2ncccc12 [IOX-1] (top concentration 100000 nM),2.84
